Experimental data as given in patent US7618978B2, “Amides as BACE inhibitors” (Eli Lilly and Company, priority 2004, dated 2009).
Where a name gives a salt, the structure may show the parent alone.

Tests used:
[1] = biological target: T1, human BACE1(1-460):Fc (Homo sapiens, UniProt P56817); assay: BACE1 mcaFRET Assay; format: biochemical; conditions: FRET substrate 15 micromolar, pH 4.6, 16 to 24 hours at room temperature
T1 construct: made in house; host or cells: HEK293 cells, transient transfection, conditioned medium
Protocol: (§1) For in vitro enzymatic and cellular assays, test compounds are prepared in DMSO to make up a 10 millimolar stock solution. The stock solution is serially diluted (in a 1:3, 1:2.5, 1:2, or 1:1 dilution series) in DMSO to obtain a final compound concentration of 10 millimolar to 1 micromolar at the first highest concentration of a ten-point dilution curve in a 96-well round-bottom plate right before conducting the in vitro enzymatic and whole assays.
Serial dilutions of test compounds are prepared as described above. Two microliter of each dilution is added to each well on row A to H of a corresponding low protein binding black plate to which 50 microliter of 50 millimolar ammonium acetate, pH 4.6, 1 mM Triton X-100, 1 mg/ml Bovine Serum Albumin, and 15 micromolar of FRET substrate (sequence: (MCA)-S-E-V-N-L-D-A-E-F-R-K(Dnp)-R-R-R-R-NH2) for BACE1 activity are pre-added. The content is mixed well on a plate shaker for 10 min. Fifty microliter of two hundred picomolar human BACE1(1-460):Fc (See: Vasser, et al., Science, 286, 735-741 (1999)) in the same reaction buffer described above is added to the plate containing substrate and test compounds to initiate the reaction. The relative fluorescence unit (RFU) of the mixture at time 0 is recorded at excitation wavelength 330 nm and emission wavelength 400 nm, after brief mixing on a plate shaker. The reaction plate is covered with aluminum foil and kept in a dark humidified oven at room temperature for 16 to 24 hours. The RFU at the end of incubation is recorded with the same excitation and emission setting. The difference of the RFU at time 0 and the end of incubation represents the activity of BACE1 under the compound-treatment. The 10-point inhibition curve was plotted and fitted with the four-parameter logistic equation to obtain the EC50 and IC50 values. (See: Sinha, et al., Nature, 402, 537-540 (2000)). […] Data for selected compounds of the invention tested in this assay are contained in the following table.
Both human (accession number: AF190725) and murine (accession number: NM_011792) BACE1 were cloned from total brain cDNA by […]. The nucleotide sequences corresponding to amino acid sequences #1 to 460 were inserted into the cDNA encoding human IgG1 (Fc) polypeptide (Vassar et al. 1999). This fusion protein of BACE1(1-460) and human Fc, named huBACE1:Fc, was constructed into the pJB02 vector. Human BACE1(1-460):Fc (huBACE1:Fc) and murine BACE1(1-460):Fc (muBACE1:Fc) were transiently expressed in HEK293 cells. 250 μg cDNA of each construct was mixed with Fugene 6 and added to 1 liter HEK293 cells. Four days after the transfection, conditioned media were harvested for purification. Purification of huBACE1:Fc and muBACE1:Fc.
Conditioned media of […] cell transiently transfected with huBACE1:Fc or muBACE1:Fc cDNA were collected. Cell debris was removed by filtering the conditioned media through 0.22 μm sterile filter. 5 ml Protein A-agarose (bed volume) was added to 4 liter conditioned media. This mixture was gently stirred overnight at […]. The Protein A-agarose resin was collected and packed into a low-pressure chromatography column. The column was washed with 20× bed volumes of PBS at flow rate 20 ml per hour. Bound huBACE1:Fc or muBACE1:Fc protein was eluted with 50 mM acetic acid, pH 3.6, at flow rate 20 ml per hour. […] The purity of final product was assessed by electrophoresis in 4-20% Tris-Glycine SDS-PAGE. […]

[2] = biological target: T2, beta-secretase activity (Homo sapiens, UniProt P56817); assay: Whole Cell Assay for Measuring the Inhibition of Beta-Secretase Activity; format: cell-based; conditions: HEK293/APP751sw or HEK293/APP751wt cells, 4 to 6 hours at 37C, Abeta, sAPPbeta-lowering effect by sandwich ELISA
T2 construct: endogenous in cells; host or cells: HEK293p (ATCC CRL-1573) stably expressing human APP751sw or APP751wt
Protocol: as §1
The routine whole cell assay for the measurement of inhibition of beta-secretase activity utilizes the human embryonic kidney cell line HEK293p (ATCC Accession No. CRL-1573) stably expressing a human APP751 cDNA containing the naturally occurring double mutation […] to Asn651Leu652, commonly called the Swedish mutation (noted HEK293/APP751sw) and shown to overproduce Abeta (Citron et al., 1992, Nature 360:672-674). Human embryonic kidney HEK293p cells stably expressing wild-type human APP751 cDNA (noted HEK293/APP751wt) are also used to assess the inhibition of beta-secretase activity. In vitro Aβ reduction assays have been described in the literature (See: Dovey, et al., Journal of Neurochemistry, 76, 173-181 (2001); Seubert, et al., Nature, 361, 260 (1993); and Johnson-Wood, et al., Proc. Natl. Acad. Sci. USA, 94, 1550-1555 (1997))
Cells (HEK293/APP751sw or HEK293/APP751wt, at 3×10^4 cells/well, containing 200 microliters culture media, DMEM containing 10% FBS) are incubated at 37C for 4 to 6 hours in the presence/absence of inhibitors (diluted in DMSO) at the desired concentration. At the end of the incubation, conditioned media are analyzed for beta-secretase activity, for example, by analysis of cleavage fragments, Abeta peptide and sAPPbeta. Abeta peptides are measured by a sandwich ELISA, using monoclonal 266 as a capture antibody and biotinylated 3D6 as reporting antibody. The sAPPbeta fragments are analyzed by a sandwich ELISA, using monoclonal 8E5 antibody as a capture antibody and rabbit polyclonal 192sw or 192wt as a reporting antibody. Note that sAPPbeta is the cleavage product of full length APP by BACE 1. The concentration of sAPPbeta released in the conditioned media following the compound treatment corresponds to the activity of BACE1 under such conditions. The 10-point inhibition curve was plotted and fitted with the four-parameter logistic equation to obtain the EC50 and IC50 values for the Abeta, sAPPbeta-lowering effect. Data for selected compounds of the invention tested in this assay are contained in the following table.

T1 sequence (P56817 22-460): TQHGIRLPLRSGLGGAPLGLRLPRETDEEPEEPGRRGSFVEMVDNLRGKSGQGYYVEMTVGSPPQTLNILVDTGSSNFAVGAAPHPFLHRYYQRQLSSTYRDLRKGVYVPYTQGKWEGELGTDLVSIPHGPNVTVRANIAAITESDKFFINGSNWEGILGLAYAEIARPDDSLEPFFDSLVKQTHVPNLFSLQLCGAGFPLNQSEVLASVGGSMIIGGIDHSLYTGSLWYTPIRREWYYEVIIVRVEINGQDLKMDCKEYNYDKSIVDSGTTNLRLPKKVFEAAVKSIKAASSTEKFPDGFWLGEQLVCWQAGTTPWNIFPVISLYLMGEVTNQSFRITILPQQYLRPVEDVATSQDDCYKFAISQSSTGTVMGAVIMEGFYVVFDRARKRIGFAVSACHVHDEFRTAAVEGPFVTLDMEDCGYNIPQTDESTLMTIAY
T2 sequence (P56817 46-501): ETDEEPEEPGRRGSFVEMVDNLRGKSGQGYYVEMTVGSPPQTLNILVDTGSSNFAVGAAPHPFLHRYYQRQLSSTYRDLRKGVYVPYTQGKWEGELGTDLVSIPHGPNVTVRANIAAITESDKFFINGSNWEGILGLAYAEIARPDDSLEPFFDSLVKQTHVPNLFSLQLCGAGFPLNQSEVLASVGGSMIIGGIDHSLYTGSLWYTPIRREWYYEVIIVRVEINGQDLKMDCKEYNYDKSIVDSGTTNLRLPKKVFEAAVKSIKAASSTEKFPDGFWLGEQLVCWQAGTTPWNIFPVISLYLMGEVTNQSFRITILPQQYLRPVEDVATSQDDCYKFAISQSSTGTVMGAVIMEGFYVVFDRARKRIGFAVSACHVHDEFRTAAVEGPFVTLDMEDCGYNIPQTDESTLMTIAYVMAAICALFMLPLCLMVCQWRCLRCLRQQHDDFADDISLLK

| Structure (SMILES) | IC50 [1] | IC50 [2] |
| --- | --- | --- |
| CCC(C)Nc1cc(C(=O)N[C@@H](Cc2ccccc2)[C@@H](O)[C@H]2CN(C(C)=O)CCN2)cc(N(C)S(C)(=O)=O)n1 (stereo partly drawn) [Example 7, N-[(1S,2R)-2-(R)-(4-Acetylpiperazin-2-yl)-1-benzyl-2-hydroxyethyl]-2-sec-butylamino-6-(methanesulfonyl-methylamino)-isonicotinamide hydrochloride] | 0.003 µM | 0.045 µM |
| CCC(C)Nc1cc(C(=O)NC(Cc2ccccc2)C(O)C2NCCN(C)C2=O)cc(N(C)S(C)(=O)=O)n1 [Example 3, N-[1-(S)-Benzyl-2-hydroxy-2-(4-methyl-3-oxopiperazin-2-yl)-ethyl]-2-(S)-sec-butylamino-6-(methylsulfonyl-methylamino)-isonicotinamide hydrochloride] | 0.001 µM | 0.041 µM |
| CC(=O)N[C@@H](Cc1cc(F)cc(F)c1)[C@H](O)[C@H]1CC[C@@H](OCCC(C)C)CN1 [Example 55, N-(1S, 2R)-{1-(3,5-Difluoro-benzyl)-2-hydroxy-2-[(5R,2R)-5-(3-methyl-butoxy)-piperidin-2-yl]-ethyl}-acetamide hydrochloride] | 6.9 µM | 6.1 µM |
| CC(=O)N[C@@H](Cc1cc(F)cc(F)c1)[C@H](O)[C@H]1CC[C@@H](OCC(C)C)CN1 [Example 58, N-(1S,2R)-{1-(3,5-Difluoro-benzyl)-2-hydroxy-2-[(5R,2R)-5-isobutoxy-piperidin-2-yl]-ethyl}-acetamide hydrochloride] | 6.8 µM |  |
| CC(=O)NC(Cc1cc(F)cc(F)c1)C(O)C1CCC(OCc2ccccc2)CN1 [Example 19, N-{(1S,2R)-2-[(5R,2R)-5-Benzyloxy-2-piperidin-2-yl]-1-(3,5-difluoro-benzyl)-2-hydroxy-ethyl}-acetamide hydrochloride] | 13.1 µM | 17.1 µM |
